What was measured:
[1] = xn = mol fraction of the nth substance listed

CCCCCC [hexane]
Conditions | surface tension liquid-gas [mN/m]
283.15 K | 19.63
288.15 K | 19.04
293.15 K | 18.52
298.15 K | 18.06
303.15 K | 17.53
308.15 K | 16.74
313.15 K | 16.47

CCO [ethanol]
Conditions | surface tension liquid-gas [mN/m]
283.15 K | 23.12
288.15 K | 22.75
293.15 K | 22.28
298.15 K | 21.86
303.15 K | 21.49
308.15 K | 21.15
313.15 K | 20.66

CCCCCC [hexane] + CCCCO
surface tension liquid-gas [mN/m], [1]
Conditions | 283.15 K | 288.15 K | 293.15 K | 298.15 K | 303.15 K | 308.15 K | 313.15 K
x2 = 0.0519 | 19.78 | 19.15 | 18.6 | 18.11 | 17.55 | 16.75 | 16.4
x2 = 0.0875 | 19.87 | 19.26 | 18.7 | 18.2 | 17.61 | 16.8 | 16.43
x2 = 0.1959 | 20.17 | 19.58 | 19.03 | 18.52 | 17.92 | 17.13 | 16.74
x2 = 0.2999 | 20.41 | 19.88 | 19.35 | 18.84 | 18.28 | 17.52 | 17.12
x2 = 0.399 | 20.69 | 20.14 | 19.65 | 19.1 | 18.62 | 17.91 | 17.48
x2 = 0.4914 | 20.93 | 20.4 | 19.96 | 19.43 | 18.92 | 18.29 | 17.83
x2 = 0.5974 | 21.44 | 20.9 | 20.44 | 19.91 | 19.43 | 18.82 | 18.39
x2 = 0.7044 | 22.14 | 21.63 | 21.18 | 20.6 | 20.17 | 19.59 | 19.12
x2 = 0.8027 | 23.09 | 22.54 | 22.13 | 21.54 | 21.13 | 20.6 | 20.15
x2 = 0.9088 | 24.37 | 23.85 | 23.44 | 22.87 | 22.51 | 22.06 | 21.6
x2 = 0.953 | 24.93 | 24.47 | 24.07 | 23.53 | 23.18 | 22.76 | 22.37

CCC(C)O (stereo not drawn) [butan-2-ol]
Conditions | surface tension liquid-gas [mN/m]
283.15 K | 24.37
288.15 K | 23.95
293.15 K | 23.56
298.15 K | 23.08
303.15 K | 22.75
308.15 K | 22.39
313.15 K | 21.97

— the NIST ThermoML archive (doi:10.1021/je700215z)
